Reference: US8436004B2, “Bicycloaniline derivative” (MSD K.K., priority 2007, dated 2013)

Tested on: Human colon cancer cells WiDr
Experiment: Tumor growth inhibitory effect, WiDr subcutaneous xenograft in nude rats
Type: in vivo, F344/N Jcl-rnu nude rats
Method: Pharmacological Test 4 (Tumor Growth Inhibitory Effect)
Human colon cancer cells WiDr (obtained from ATCC) were implanted into the subcutaneous area of the back of F344/N Jcl-rnu nude rats. 12 days after the implantation, 5 mg/kg of gemcitabine (Gemzar, from Eli Lily) was intravenously administered to them; and after 24 hours, a test compound suspended in a solvent (0.5% methyl cellulose) was orally administered thereto. This was repeated once a week for 3 weeks. The tumor volume (0.5×major diameter×(minor diameter)^2) was measured on days 0, 3, 6, 10, 13, 17, 20, 24 and 27 (the first gemcitabine administration is on day 0). The relative tumor volume was calculated, based on the tumor volume on day 0, as 1. The tumor growth rate (% T/C) was obtained according to the formulae mentioned below.
In case where the tumor volume change from day 0 in the test compound administration group is more than 0 (>0): % T/C=(tumor volume change in the test compound group on days 3, 6, 10, 13, 17, 20, 24 and 27/tumor volume change in the control group on days 3, 6, 10, 13, 17, 20, 24 and 27)×100. In case where the tumor volume change from day 0 in the test compound administration group is less than 0 (<0): % T/C=(tumor volume change in the test compound group on days 3, 6, 10, 13, 17, 20, 24 and 27/tumor volume […] in the test compound group on day 0)×100.
Gemcitabine was administered on days 0, 7 and 14. The compound of Example 1 was administered on days 1, 8 and 15.

Nc1ccn([C@@H]2O[C@H](CO)[C@@H](O)C2(F)F)c(=O)n1 [Gemcitabine, gemcitabine]
% T/C day 3 (day 3, gemcitabine 5 mg/kg i.v. days 0, 7, 14, Example 1 15 mg/kg oral days 1, 8, 15, n=5): 62% | % T/C day 6 (day 6, gemcitabine 5 mg/kg i.v. days 0, 7, 14, Example 1 15 mg/kg oral days 1, 8, 15, n=5): 67% | % T/C day 10 (day 10, gemcitabine 5 mg/kg i.v. days 0, 7, 14, Example 1 15 mg/kg oral days 1, 8, 15, n=5): 66% | % T/C day 13 (day 13, gemcitabine 5 mg/kg i.v. days 0, 7, 14, Example 1 15 mg/kg oral days 1, 8, 15, n=5): 64% | % T/C day 17 (day 17, gemcitabine 5 mg/kg i.v. days 0, 7, 14, Example 1 15 mg/kg oral days 1, 8, 15, n=5): 57% | % T/C day 20 (day 20, gemcitabine 5 mg/kg i.v. days 0, 7, 14, Example 1 15 mg/kg oral days 1, 8, 15, n=5): 49% | % T/C day 24 (day 24, gemcitabine 5 mg/kg i.v. days 0, 7, 14, Example 1 15 mg/kg oral days 1, 8, 15, n=5): 52% | % T/C day 27 (day 27, gemcitabine 5 mg/kg i.v. days 0, 7, 14, Example 1 15 mg/kg oral days 1, 8, 15, n=5): 54% | tumor growth rate, result in words (summary of Table 5): reduced the tumor growth rate
